Laboratory results published in US8288371B2, “Ortho pyrrolidine, benzyl-substituted heterocycle CCR1 antagonists for autoimmune diseases and inflammation” (Pharmacopeia, LLC, priority 2007, dated 2012).
pIC50: −log10 of the molar value.

molecular target: T1, human CCR1 (Homo sapiens, UniProt P32246); assay: CCR1 binding protocol (SPA, [125I]-MIP-1α displacement); conditions: cell membrane expressing human CCR1, 0.1 nM [125I]-MIP-1α, 4 hours at ambient temperature; read-out: Relative potency (IC50)
T1 sequence (P32246 1-355): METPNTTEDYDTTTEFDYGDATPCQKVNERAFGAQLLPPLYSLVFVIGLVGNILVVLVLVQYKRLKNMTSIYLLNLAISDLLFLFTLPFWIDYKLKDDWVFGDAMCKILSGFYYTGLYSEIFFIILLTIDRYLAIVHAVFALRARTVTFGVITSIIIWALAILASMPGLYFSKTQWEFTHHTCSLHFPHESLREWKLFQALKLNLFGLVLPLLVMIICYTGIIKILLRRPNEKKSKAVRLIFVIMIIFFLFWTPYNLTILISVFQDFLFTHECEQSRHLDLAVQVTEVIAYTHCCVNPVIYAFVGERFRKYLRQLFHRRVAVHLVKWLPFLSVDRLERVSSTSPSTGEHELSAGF
Method in brief: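 Human CCR1 membranes (0.5 μg/well) on SPA beads were incubated with compound and 0.1 nM [125I]-MIP-1α (final) for 4 h at ambient temperature. Buffer was Tris pH 7.4 with NaCl, KCl, MnCl and 0.1% BSA. IC50 came from ½-log compound dilutions (10 mM top DMSO stock) by displacement of bound radioligand.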

Row | pIC50 | Compound
1 | 6.30 to 7.30 | NCc1nnc([C@H]2CCCN2C(=O)N[C@H]2CCOc3cc(C(F)(F)F)ccc32)n1Cc1ccc(Cl)cc1 [Compound 414]
2 | > 7.30 | Cc1ncc(NC(=O)N2CCC[C@@H]2c2nnc(C)n2Cc2ccc(Cl)cc2)c(C)n1 [Compound 415]
3 | > 7.30 | Cc1nnc([C@H]2CCCN2C(=O)Nc2cccc(Cl)c2F)n1Cc1ccc(Cl)cc1 [Compound 416]
4 | > 7.30 | Cc1nnc([C@H]2CCCN2C(=O)Nc2ccc(Cl)cc2C#N)n1Cc1ccc(Cl)cc1 [Compound 417]
5 | > 7.30 | Cc1nnc([C@H]2CCCN2C(=O)Nc2ccc(Br)cc2F)n1Cc1ccc(Cl)cc1 [Compound 418]
6 | 6.30 to 7.30 | Cc1nnc([C@H]2CCCN2C(=O)Nc2cc(Cl)ccc2F)n1Cc1ccc(Cl)cc1 [Compound 419]
7 | 6.30 to 7.30 | Cc1nnc([C@H]2CCCN2/C(=N/C#N)NCc2ccc(Cl)cc2Cl)n1Cc1ccc(Cl)cc1 [Compound 420]
8 | 6.30 to 7.30 | Cc1nnc([C@H]2CCCN2C(=O)Nc2ccc(Cl)cc2Cl)n1Cc1ccc(Cl)cc1 [Compound 421]
9 | 6.30 to 7.30 | Cc1nnc([C@H]2CCCN2C(=O)Nc2ccc(F)cc2F)n1Cc1ccc(Cl)cc1 [Compound 422]
10 | 6.30 to 7.30 | Cc1nnc([C@H]2CCCN2C(=O)Nc2cc(C(F)(F)F)ccc2S(C)(=O)=O)n1Cc1ccc(Cl)cc1 [Compound 423]
11 | 6.30 to 7.30 | Cc1nnc([C@H]2CCCN2C(=O)Nc2ccc(Cl)c(Cl)c2)n1Cc1ccc(Cl)cc1 [Compound 424]
12 | > 7.30 | Cc1nnc([C@H]2CCCN2C(=O)Nc2ccc(F)cc2Cl)n1Cc1ccc(Cl)cc1 [Compound 425]
13 | > 7.30 | Cc1cc(NC(=O)N2CCC[C@@H]2c2nnc(C)n2Cc2ccc(Cl)cc2)c(F)cc1Cl [Compound 426]
14 | > 7.30 | Cc1nnc([C@H]2CCCN2C(=O)Nc2cc(F)c(Cl)cc2F)n1Cc1ccc(Cl)cc1 [Compound 427]
15 | > 7.30 | COc1cc(Cl)ccc1NC(=O)N1CCC[C@@H]1c1nnc(C)n1Cc1ccc(Cl)cc1 [Compound 428]
16 | > 7.30 | Cc1nnc([C@H]2CCCN2C(=O)Nc2c(F)cc(Cl)cc2F)n1Cc1ccc(Cl)cc1 [Compound 429]
17 | 6.30 to 7.30 | Cc1nnc([C@H]2CCCN2C(=O)Nc2ccc3c(c2)S(=O)(=O)C=C3)n1Cc1ccc(Cl)cc1 [Compound 430]
18 | > 7.30 | Cc1nc(C(F)(F)F)ncc1NC(=O)N1CCC[C@@H]1c1nnc(C)n1Cc1ccc(Cl)cc1 [Compound 431]
19 | > 7.30 | Cc1nnc([C@H]2C[C@H](O)CN2C(=O)N[C@H]2CCOc3cc(C(F)(F)F)ccc32)n1Cc1ccc(Cl)cc1 [Compound 432]
20 | > 7.30 | Cc1onc(-c2ccccc2)c1NC(=O)N1C[C@@H](O)C[C@@H]1c1nnc(C)n1Cc1ccc(Cl)cc1 [Compound 433]
21 | > 7.30 | Cc1nnc([C@H]2CCCN2C(=O)Nc2ccc(Cl)cc2S(C)(=O)=O)n1Cc1ccc(Cl)cc1 [Compound 434]
22 | > 7.30 | Cc1nnc([C@H]2C[C@H](O)CN2C(=O)Nc2ccc(Cl)cc2F)n1Cc1ccc(Cl)cc1 [Compound 435]
23 | > 7.30 | Cc1nnc([C@H]2C[C@H](O)CN2C(=O)NC2(c3ccc(C(F)(F)F)cc3)CC2)n1Cc1ccc(Cl)cc1 [Compound 436]
24 | > 7.30 | Cc1nnc([C@H]2C[C@H](O)CN2C(=O)Nc2ccc(Cl)c(C(F)(F)F)c2)n1Cc1ccc(Cl)cc1 [Compound 437]
25 | > 7.30 | Cc1nnc([C@H]2C[C@@H](O)CN2C(=O)N[C@@H](C)c2ccc(Cl)cc2)n1Cc1ccc(Cl)cc1 [Compound 438]
26 | 6.30 to 7.30 | Cc1nnc([C@H]2C[C@@H](O)CN2C(=O)NCc2ccc(C(F)(F)F)cc2)n1Cc1ccc(Cl)cc1 [Compound 439]
27 | > 7.30 | Cc1nnc([C@H]2C[C@H](O)CN2C(=O)NC2CCOc3cc(C#N)ccc32)n1Cc1ccc(Cl)cc1 (some centres unmarked) [Compound 440]
28 | 6.30 to 7.30 | Cc1nnc([C@H]2CCCN2C(=O)Nc2ccc(Cl)c(C(F)(F)F)c2)n1Cc1ccc(Cl)cc1 [Compound 441]
29 | > 7.30 | Cc1nnc([C@H]2C[C@@H](O)CN2C(=O)NCc2ccc(Cl)cc2Cl)n1Cc1ccc(Cl)cc1 [Compound 442]
